Data: the kinase profiling compilation of Christmann-Franck et al. (2016)
Values joined by “and” are separate entries in the source; they are usually repeats but may differ in a detail not shown here. Identical values can stand only once.

Experiments:
Assay in all cases: radiometric filter-binding kinase assay, Kinase HotSpot
Conditions in all cases: compound 0.5 µM; ATP 10 µM
[1] = target: CDC42BPA (human) (UniProt Q5VT25)
[2] = target: PRKG2 (human) (UniProt Q13237)
[3] = target: MAP4K4 (human) (UniProt O95819)
[4] = target: CSNK1A1 (human) (UniProt P48729)
[5] = target: NEK1 (human) (UniProt Q96PY6)
[6] = target: DYRK1A (human) (UniProt Q13627)
[7] = target: PASK (human) (UniProt Q96RG2)
[8] = target: MARK4 (human) (UniProt Q96L34)
Chain of MARK4 (human) (Q96L34 whole entry, looked up): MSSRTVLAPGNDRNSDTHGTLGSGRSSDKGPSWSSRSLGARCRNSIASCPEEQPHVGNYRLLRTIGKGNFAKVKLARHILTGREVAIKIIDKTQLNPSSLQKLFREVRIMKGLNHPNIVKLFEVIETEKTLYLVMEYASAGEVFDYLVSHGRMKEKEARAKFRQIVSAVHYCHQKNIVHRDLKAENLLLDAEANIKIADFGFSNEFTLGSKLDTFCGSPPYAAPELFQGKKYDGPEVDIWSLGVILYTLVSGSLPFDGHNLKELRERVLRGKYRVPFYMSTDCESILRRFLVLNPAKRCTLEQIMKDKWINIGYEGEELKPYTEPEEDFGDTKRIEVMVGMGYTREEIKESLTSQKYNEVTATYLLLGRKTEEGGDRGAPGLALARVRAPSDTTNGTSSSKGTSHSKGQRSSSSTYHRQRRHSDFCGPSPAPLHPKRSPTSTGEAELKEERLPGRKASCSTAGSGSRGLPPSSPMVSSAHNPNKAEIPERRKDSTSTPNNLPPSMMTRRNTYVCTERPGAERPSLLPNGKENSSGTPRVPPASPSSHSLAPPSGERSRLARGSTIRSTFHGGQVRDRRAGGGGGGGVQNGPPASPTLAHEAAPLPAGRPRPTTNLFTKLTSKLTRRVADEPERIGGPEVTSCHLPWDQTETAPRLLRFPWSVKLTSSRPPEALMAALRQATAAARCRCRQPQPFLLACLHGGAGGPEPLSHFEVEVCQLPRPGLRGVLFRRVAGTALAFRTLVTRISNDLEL

[9] = target: NTRK1 (human) (UniProt P04629)
[10] = target: MAPK14 (human) (UniProt Q16539)
[11] = target: STK3 (human) (UniProt Q13188)
Chain of STK3 (human) (Q13188 whole entry, looked up): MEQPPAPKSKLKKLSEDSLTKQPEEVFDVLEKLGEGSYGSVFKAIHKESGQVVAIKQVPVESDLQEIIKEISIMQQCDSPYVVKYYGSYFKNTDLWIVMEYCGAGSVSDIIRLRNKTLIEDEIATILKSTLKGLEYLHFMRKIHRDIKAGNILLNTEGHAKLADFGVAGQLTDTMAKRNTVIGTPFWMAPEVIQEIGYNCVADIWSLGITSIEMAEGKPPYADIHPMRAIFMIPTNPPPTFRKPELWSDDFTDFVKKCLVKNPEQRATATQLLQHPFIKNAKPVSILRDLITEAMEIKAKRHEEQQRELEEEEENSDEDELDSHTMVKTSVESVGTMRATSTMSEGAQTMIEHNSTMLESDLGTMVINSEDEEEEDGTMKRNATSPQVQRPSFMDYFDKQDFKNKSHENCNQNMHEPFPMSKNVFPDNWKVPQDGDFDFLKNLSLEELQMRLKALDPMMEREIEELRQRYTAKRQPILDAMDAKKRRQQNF

[12] = target: LRRK2 (human) (UniProt Q5S007)
[13] = target: LYN (human) (UniProt P07948)
Chain of LYN (human) (P07948 whole entry, looked up): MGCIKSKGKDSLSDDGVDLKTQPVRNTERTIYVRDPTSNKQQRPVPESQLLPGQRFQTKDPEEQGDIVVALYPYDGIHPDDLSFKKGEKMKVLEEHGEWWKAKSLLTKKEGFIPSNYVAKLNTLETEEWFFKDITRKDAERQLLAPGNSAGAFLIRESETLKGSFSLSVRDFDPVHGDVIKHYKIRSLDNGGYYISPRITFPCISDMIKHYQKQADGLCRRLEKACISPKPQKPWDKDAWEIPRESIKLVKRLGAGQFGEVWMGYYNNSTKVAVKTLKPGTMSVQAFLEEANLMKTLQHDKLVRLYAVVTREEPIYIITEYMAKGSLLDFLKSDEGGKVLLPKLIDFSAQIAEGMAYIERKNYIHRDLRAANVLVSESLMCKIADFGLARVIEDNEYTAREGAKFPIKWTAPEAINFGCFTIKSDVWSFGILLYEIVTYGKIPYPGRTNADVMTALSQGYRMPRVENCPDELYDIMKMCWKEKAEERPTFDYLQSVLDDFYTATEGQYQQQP

[14] = target: FGFR4 (human) (UniProt P22455)
[15] = target: LTK (human) (UniProt P29376)
[16] = target: PKN1 (human) (UniProt Q16512)
[17] = target: EPHB3 (human) (UniProt P54753)
Chain of EPHB3 (human) (P54753 whole entry, looked up): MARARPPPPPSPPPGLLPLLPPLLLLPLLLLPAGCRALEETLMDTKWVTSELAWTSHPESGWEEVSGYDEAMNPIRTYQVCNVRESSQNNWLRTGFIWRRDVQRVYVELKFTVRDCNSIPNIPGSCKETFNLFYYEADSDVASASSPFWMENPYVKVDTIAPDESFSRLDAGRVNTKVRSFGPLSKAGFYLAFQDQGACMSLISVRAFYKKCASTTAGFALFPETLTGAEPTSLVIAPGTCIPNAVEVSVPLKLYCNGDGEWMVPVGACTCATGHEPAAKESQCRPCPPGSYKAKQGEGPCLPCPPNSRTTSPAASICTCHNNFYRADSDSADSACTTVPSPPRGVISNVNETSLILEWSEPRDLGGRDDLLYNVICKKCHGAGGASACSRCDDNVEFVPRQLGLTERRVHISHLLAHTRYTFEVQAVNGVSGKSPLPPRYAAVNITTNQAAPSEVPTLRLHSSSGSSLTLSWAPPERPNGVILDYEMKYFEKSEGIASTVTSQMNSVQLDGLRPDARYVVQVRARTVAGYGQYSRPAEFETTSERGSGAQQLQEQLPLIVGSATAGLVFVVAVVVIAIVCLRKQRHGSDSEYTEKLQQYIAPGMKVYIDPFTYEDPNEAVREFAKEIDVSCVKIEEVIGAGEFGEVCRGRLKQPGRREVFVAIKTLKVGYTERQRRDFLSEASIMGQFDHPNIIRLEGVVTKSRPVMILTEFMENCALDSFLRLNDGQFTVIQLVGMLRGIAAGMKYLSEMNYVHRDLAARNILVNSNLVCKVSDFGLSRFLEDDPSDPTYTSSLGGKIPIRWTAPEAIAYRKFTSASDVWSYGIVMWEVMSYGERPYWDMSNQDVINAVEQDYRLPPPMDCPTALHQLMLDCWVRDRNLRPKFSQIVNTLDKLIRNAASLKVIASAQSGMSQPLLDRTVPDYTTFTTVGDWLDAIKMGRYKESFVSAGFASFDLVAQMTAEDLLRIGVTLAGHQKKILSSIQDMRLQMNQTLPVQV

[18] = target: CDK3 CCNE1 (human) (UniProt Q00526+P24864)
[19] = target: ACVRL1 (human) (UniProt P37023)
[20] = target: BLK (human) (UniProt P51451)
[21] = target: MAP3K11 (human) (UniProt Q16584)
[22] = target: ALK (human) (UniProt Q9UM73)
Chain of ALK (human) (Q9UM73 whole entry, looked up): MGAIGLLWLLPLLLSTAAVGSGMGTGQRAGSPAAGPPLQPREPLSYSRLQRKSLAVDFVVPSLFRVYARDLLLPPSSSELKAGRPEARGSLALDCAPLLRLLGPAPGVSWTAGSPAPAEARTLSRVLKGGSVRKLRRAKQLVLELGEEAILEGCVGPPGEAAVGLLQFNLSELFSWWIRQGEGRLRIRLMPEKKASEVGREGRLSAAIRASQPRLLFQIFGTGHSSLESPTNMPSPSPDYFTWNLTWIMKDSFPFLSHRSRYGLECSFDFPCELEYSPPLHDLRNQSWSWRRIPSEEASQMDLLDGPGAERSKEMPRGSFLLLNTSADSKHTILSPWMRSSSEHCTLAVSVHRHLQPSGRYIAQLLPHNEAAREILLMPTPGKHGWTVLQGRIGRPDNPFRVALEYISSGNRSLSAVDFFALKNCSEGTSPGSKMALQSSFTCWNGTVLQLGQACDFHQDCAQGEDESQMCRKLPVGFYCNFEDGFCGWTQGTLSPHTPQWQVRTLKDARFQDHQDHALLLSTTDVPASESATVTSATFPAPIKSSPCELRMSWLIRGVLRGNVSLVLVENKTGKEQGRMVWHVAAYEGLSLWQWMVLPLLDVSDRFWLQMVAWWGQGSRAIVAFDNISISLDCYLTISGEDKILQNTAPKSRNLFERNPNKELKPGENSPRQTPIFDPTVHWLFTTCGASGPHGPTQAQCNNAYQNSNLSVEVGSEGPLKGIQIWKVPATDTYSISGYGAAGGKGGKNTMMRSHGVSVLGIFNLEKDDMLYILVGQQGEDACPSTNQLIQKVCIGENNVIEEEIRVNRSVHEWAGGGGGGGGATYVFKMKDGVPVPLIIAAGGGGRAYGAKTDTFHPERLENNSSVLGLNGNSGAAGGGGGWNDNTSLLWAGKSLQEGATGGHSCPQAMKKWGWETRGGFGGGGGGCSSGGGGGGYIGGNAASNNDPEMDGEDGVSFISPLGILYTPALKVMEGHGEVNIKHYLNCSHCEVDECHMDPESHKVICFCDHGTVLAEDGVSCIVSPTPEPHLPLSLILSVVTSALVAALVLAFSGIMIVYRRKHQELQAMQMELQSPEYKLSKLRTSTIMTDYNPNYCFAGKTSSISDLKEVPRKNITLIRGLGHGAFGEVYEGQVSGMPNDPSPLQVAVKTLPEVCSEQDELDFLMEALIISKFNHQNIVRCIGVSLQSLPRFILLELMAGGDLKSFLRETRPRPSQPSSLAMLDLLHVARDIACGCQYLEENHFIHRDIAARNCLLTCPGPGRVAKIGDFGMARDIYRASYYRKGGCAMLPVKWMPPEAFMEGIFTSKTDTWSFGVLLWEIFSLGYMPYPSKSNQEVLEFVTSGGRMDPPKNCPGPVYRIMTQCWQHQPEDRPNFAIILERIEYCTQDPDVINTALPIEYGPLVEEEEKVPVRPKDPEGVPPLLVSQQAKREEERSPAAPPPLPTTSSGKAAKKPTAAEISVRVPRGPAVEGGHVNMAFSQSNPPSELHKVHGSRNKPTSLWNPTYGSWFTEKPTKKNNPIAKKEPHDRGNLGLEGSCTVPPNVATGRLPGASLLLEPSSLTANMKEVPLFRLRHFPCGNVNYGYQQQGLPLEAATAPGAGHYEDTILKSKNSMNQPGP

[23] = target: GSK3B (human) (UniProt P49841)
[24] = target: BRSK1 (human) (UniProt Q8TDC3)
[25] = target: BRSK2 (human) (UniProt Q8IWQ3)
[26] = target: EPHA1 (human) (UniProt P21709)
[27] = target: PDPK1 (human) (UniProt O15530)
[28] = target: PIM1 (human) (UniProt P11309)
[29] = target: FYN (human) (UniProt P06241)
Chain of FYN (human) (P06241 whole entry, looked up): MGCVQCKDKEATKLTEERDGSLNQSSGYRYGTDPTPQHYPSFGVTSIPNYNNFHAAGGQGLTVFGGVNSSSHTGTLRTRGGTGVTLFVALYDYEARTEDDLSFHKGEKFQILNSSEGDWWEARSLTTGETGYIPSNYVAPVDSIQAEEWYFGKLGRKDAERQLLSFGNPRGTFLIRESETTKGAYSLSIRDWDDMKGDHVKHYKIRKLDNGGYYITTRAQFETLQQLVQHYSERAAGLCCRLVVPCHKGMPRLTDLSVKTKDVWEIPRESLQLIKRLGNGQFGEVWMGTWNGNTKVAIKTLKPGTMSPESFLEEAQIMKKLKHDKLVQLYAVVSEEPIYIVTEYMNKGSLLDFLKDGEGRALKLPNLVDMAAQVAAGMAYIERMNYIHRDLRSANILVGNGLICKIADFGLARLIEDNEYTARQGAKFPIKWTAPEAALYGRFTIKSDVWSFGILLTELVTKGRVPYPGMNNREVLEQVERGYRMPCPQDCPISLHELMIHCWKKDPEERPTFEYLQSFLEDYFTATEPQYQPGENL

[30] = target: PDGFRA (human) (UniProt P16234)
[31] = target: RPS6KB1 (human) (UniProt P23443)
[32] = target: EPHB2 (human) (UniProt P29323)
[33] = target: WNK3 (human) (UniProt Q9BYP7)
[34] = target: PRKD3 (human) (UniProt O94806)
[35] = target: MAP3K10 (human) (UniProt Q02779)
[36] = target: MAP2K2 (human) (UniProt P36507)
[37] = target: MAPKAPK5 (human) (UniProt Q8IW41)
[38] = target: AKT1 (human) (UniProt P31749)
[39] = target: CDK6 CCND3 (human) (UniProt P30281+Q00534)
[40] = target: IRAK1 (human) (UniProt P51617)
[41] = target: RPS6KA5 KD2 (human) (UniProt O75582)
[42] = target: DDR2 (human) (UniProt Q16832)

CN(C)C[C@H]1CCn2c(c(C3=C(c4cn(C)c5ccccc45)C(=O)NC3=O)c3ccccc32)C1
residual activity [1]: 98.1% | residual activity [2]: 90.7% | residual activity [3]: 82.5% | residual activity [4]: 98.5% | residual activity [5]: 105% | residual activity [6]: 88.7% | residual activity [7]: 93% | residual activity [8]: 93.9% | residual activity [9]: 108% | residual activity [10]: 108% | residual activity [11]: 102% | residual activity [12]: 93.1% | residual activity [13]: 100% and 98.3% | residual activity [14]: 89.6% | residual activity [15]: 101% | residual activity [16]: 7.06% | residual activity [17]: 105% | residual activity [18]: 62.4% | residual activity [19]: 98.5% | residual activity [20]: 103% | residual activity [21]: 95.2% | residual activity [22]: 99.6% | residual activity [23]: 11.2% | residual activity [24]: 101% | residual activity [25]: 102% | residual activity [26]: 100% | residual activity [27]: 97% | residual activity [28]: 63.2% | residual activity [29]: 92.8% | residual activity [30]: 93.1% | residual activity [31]: 20% | residual activity [32]: 110% | residual activity [33]: 100% | residual activity [34]: 93.6% | residual activity [35]: 102% | residual activity [36]: 101% | residual activity [37]: 95.4% | residual activity [38]: 98.7% | residual activity [39]: 95% | residual activity [40]: 127% | residual activity [41]: 24.8% | residual activity [42]: 96%

O=C1NC(=O)C(c2cn(CCCO)c3ncccc23)=C1c1cnccn1
residual activity [1]: 78.6% | residual activity [2]: 118% | residual activity [3]: 36.4% | residual activity [4]: 67% | residual activity [5]: 91.9% | residual activity [6]: 108% | residual activity [7]: 97.1% | residual activity [8]: 93.9% | residual activity [9]: 88.1% | residual activity [10]: 107% | residual activity [11]: 74.4% | residual activity [12]: 90% | residual activity [13]: 101% and 112% | residual activity [14]: 91.5% | residual activity [15]: 90.9% | residual activity [16]: 97.8% | residual activity [17]: 86.6% | residual activity [18]: 89.4% | residual activity [19]: 105% | residual activity [20]: 87.1% | residual activity [21]: 80.8% | residual activity [22]: 105% | residual activity [23]: 25.2% | residual activity [24]: 89.2% | residual activity [25]: 90.4% | residual activity [26]: 73.9% | residual activity [27]: 92.2% | residual activity [28]: 43.9% | residual activity [29]: 107% | residual activity [30]: 113% | residual activity [31]: 90.2% | residual activity [32]: 78.3% | residual activity [33]: 91.3% | residual activity [34]: 78.2% | residual activity [35]: 91.3% | residual activity [36]: 90.3% | residual activity [37]: 98.6% | residual activity [38]: 98.6% | residual activity [39]: 84.4% | residual activity [40]: 76.6% | residual activity [41]: 73.9% | residual activity [42]: 94.6%
